Source: ChEMBL document CHEMBL1821617, “Monanchocidins B-E: polycyclic guanidine alkaloids with potent antileukemic activities from the sponge Monanchora pulchra” (J Nat Prod, 2011)

Each compound was assayed on HL-60 (assay: Cytotoxicity against human HL60 cells after 72 hrs by MTS assay). Conditions: HL-60, 72 h.
Assay type: functional, cell-based

SMILES	IC50 [nM]
CC(=O)O[C@H]1C(=O)[C@@]2(C)[C@H]([C@H](OC(=O)c3ccccc3)[C@]3(O)C[C@H](OC(=O)[C@H](O)[C@@H](NC(=O)c4ccccc4)c4ccccc4)C(C)=C1C3(C)C)[C@]1(OC(C)=O)CO[C@@H]1C[C@@H]2O [PACLITAXEL]	3.4
CC/C=C/[C@@H]1CC[C@]2(C[C@H]3CC[C@H]4[C@@H](C(=O)OC(CC)CCCCCCCCCCCC[C@@H]5O[C@](O)(CCN)[C@H](O)N(CCCN)C5=O)[C@@]5(CCC[C@H](C)O5)NC(=[N+]34)N2)O1 (stereo partly specified) [MONANCHOCIDIN E]	650
CC/C=C/[C@@H]1CC[C@]2(C[C@H]3CC[C@H]4[C@@H](C(=O)OC(CC)CCCCCCCCCCCCC[C@@H]5O[C@](O)(CCN)[C@H](O)N(CCCN)C5=O)[C@@]5(CCC[C@H](C)O5)NC(=[N+]34)N2)O1 (stereo partly specified) [MONANCHOCIDIN A]	540
CC/C=C/[C@@H]1CC[C@]2(C[C@H]3CC[C@H]4[C@@H](C(=O)OCCCCCCCCCCCCCC[C@@H]5O[C@](O)(CCN)[C@H](O)N(CCCN)C5=O)[C@@]5(CCC[C@H](C)O5)NC(=[N+]34)N2)O1 [MONANCHOCIDIND]	830
CC[C@@H]1C=CCC[C@]2(C[C@H]3CC[C@H]4[C@@H](C(=O)OCCCCCCCCCCCCCC[C@@H]5O[C@](O)(CCN)[C@H](O)N(CCCN)C5=O)[C@@]5(CCC[C@H](C)O5)NC(=[N+]34)N2)O1 [MONANCHOCIDIN B]	200
CC[C@@H]1C=CCC[C@]2(C[C@H]3CC[C@H]4[C@@H](C(=O)OCCCCCCCCCCCCCCC[C@@H]5O[C@](O)(CCN)[C@H](O)N(CCCN)C5=O)[C@@]5(CCC[C@H](C)O5)NC(=[N+]34)N2)O1 [MONANCHOCIDIN C]	110
